Results reported in patent publication US10093660B2, “Sulfoximine substituted quinazolines for pharmaceutical compositions” (EVOTEC INTERNATIONAL GMBH, priority 2013, dated 2018).

Key:
MNK2a = MNK2a (Homo sapiens (Human), UniProt Q9HBH9); assay: MNK2a in vitro kinase assay (Assay 2), ADP-Glo; type: biochemical; conditions: assay 2; read-out: MNK2 IC50
From the text: B. MNK2a In Vitro Kinase Assay (Assay 2)

MNK1a = MNK1a (Homo sapiens (Human), UniProt Q9BUB5); assay: MNK1 in vitro kinase assay (Assay 3), Z'-LYTE; type: biochemical; conditions: for inhibition at 1 µM: compound concentration of 1 μM, read-out: MNK1 % INH
From the text: C. MNK1 In Vitro Kinase Assay (Assay 3)
MNK1 Data can be obtained from the MNK1 Z′-LYTE® assay. The MNK1 Z′-LYTE® screening protocol and assay conditions are also described on www.invitrogen.com.
The assay is described as follows:
The Z′-LYTE® biochemical assay employs a fluorescence-based, coupled-enzyme format and is based on the differential sensitivity of phosphorylated and non-phosphorylated peptides to proteolytic cleavage. The peptide substrate is labeled with two fluorophores—one at each end—that make up a FRET pair.
In the primary reaction, the kinase transfers the gamma-phosphate of ATP to a single tyrosine, serine or threonine residue in a synthetic FRET-peptide. In the secondary reaction, a site-specific protease recognizes and cleaves non-phosphorylated FRET-peptides. Phosphorylation of FRET-peptides suppresses cleavage by the Development Reagent. Cleavage disrupts FRET between the donor (i.e., coumarin) and acceptor (i.e., fluorescein) fluorophores on the FRET-peptide, whereas uncleaved, phosphorylated FRET-peptides maintain FRET. A ratiometric method, which calculates the ratio (the Emission Ratio) of donor emission to acceptor emission after excitation of the donor fluorophore at 400 nm, is used to quantitate reaction progress, as shown in the equation below.
The 2×MKNK1 (MNK1) mixture is prepared in 50 mM HEPES pH 7.5, 0.01% BRIJ-35, 10 mM MgCl2, 4 mM MnCl2, 1 mM EGTA, 2 mM DTT.
The Test Compounds are screened in 1% DMSO (final) in the well.
All Peptide/Kinase Mixtures are diluted to a 2× working concentration in the MNK1 Kinase Buffer.
All ATP Solutions are diluted to a 4× working concentration in Kinase Buffer (50 mM HEPES pH 7.5, 0.01% BRIJ-35, 10 mM MgCl2, 1 mM EGTA).
Development Reagent Solution:
The Development Reagent is diluted in Development Buffer
1. 2.5 μL—4× Test Compound
2. 5 μL—2× Peptide/Kinase Mixture
5. 60-minute Kinase Reaction incubation at room temperature
6. 5 μL—Development Reagent Solution
8. 60-minute Development Reaction incubation at room temperature
9. Read on fluorescence plate reader and analyze the data
Control C0%=Average Coumarin emission signal of the 0% Phos. Control F100%=Average Fluorescein emission signal of the 100% Phos. Control F0%=Average Fluorescein emission signal of the 0% Phos. Control Graphing Software
SelectScreen® Kinase Profiling Service uses XLfit from IDBS. […] The activity of MNK proteins can be assayed also by other in vitro kinase assay formats. […] In general, MNK kinase assays can be performed such that a MNK substrate such as a protein or a peptide, which may or may not include modifications as further described below, or others are phosphorylated by MNK proteins having enzymatic activity in vitro. The activity of a candidate agent can then be determined via its ability to decrease the enzymatic activity of the MNK protein. The kinase activity may be detected by change of the chemical, physical or immunological properties of the substrate due to phosphorylation.

MNK1a, sequence (Q9BUB5 other isoform, or with tags, fused parts or gaps): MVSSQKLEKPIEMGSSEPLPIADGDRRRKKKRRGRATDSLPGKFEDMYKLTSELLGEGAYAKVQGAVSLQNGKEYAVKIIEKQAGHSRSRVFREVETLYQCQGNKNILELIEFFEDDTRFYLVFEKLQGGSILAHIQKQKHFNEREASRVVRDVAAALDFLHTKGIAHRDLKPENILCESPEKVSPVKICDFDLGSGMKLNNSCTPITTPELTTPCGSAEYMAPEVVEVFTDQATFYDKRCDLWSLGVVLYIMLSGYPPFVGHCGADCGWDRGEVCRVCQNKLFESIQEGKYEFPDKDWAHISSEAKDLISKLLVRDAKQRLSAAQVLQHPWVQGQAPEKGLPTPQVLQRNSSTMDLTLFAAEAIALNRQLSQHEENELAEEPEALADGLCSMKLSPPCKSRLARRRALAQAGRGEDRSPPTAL
MNK2a, sequence (Q9HBH9 whole entry): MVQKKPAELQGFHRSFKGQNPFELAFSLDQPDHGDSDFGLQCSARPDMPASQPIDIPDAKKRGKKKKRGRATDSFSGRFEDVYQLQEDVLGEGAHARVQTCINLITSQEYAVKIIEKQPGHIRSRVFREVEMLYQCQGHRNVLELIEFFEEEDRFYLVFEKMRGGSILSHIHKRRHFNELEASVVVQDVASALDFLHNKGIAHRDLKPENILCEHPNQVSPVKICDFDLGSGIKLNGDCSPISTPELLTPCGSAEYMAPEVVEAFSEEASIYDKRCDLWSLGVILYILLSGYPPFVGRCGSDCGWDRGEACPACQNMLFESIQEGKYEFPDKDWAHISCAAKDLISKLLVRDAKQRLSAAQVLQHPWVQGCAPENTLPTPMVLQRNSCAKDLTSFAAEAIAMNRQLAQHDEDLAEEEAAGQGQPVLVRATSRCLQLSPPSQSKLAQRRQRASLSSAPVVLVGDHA

Row | SMILES | IC50 (MNK2a) | inhibition at 1 µM (MNK1a) | IC50 (MNK1a)
1 | O=S1(=Nc2cc(Cl)c3c(Nc4ccc(Cl)nc4O[C@H]4COC[C@@H]4O)ncnc3c2)CCC1 [Example 1.16] | 2 nM | 96% | 
2 | CS(C)(=O)=Nc1cc(C(F)(F)F)c2c(Nc3ccc(F)cc3O[C@H]3COC[C@@H]3O)ncnc2c1 [Example 1.12] | 4 nM | 88% | 
3 | O=S1(=Nc2cc(Cl)c3c(Nc4ccc(F)cc4O[C@H]4COC[C@@H]4O)ncnc3c2)CCC1 [Example 1.7] | 2 nM |  | 18 nM
4 | Cc1cc(N=S2(=O)CCCC2)cc2ncnc(Nc3ccc(F)cc3O[C@H]3COC[C@H]3O)c12 (racemic) [Example 2.8] | 2 nM | 100% | 
5 | CS(C)(=O)=Nc1cc(F)c2c(Nc3ccc(Cl)nc3O[C@H]3COC[C@@H]3O)ncnc2c1 [Example 1.21] | 7 nM | 93% | 
6 | CO[C@@H]1CN(C(=O)OCc2ccccc2)C[C@H]1Oc1ncccc1Nc1ncnc2cc(N=S(C)(C)=O)cc(C)c12 [Example 2.17] | 21 nM | 18% | 
7 | O=S1(=Nc2cc(F)c3c(Nc4ccc(Cl)nc4O[C@H]4COC[C@@H]4O)ncnc3c2)CCCC1 [Example 1.20] | 2 nM | 97% | 
8 | Cc1cc(N=S2(=O)CCCCC2)cc2ncnc(Nc3ccc(F)cc3O[C@H]3COC[C@@H]3O)c12 [Example 2.38] | 3 nM | 96% | 
9 | Cc1cc(N=S(C)(C)=O)cc2ncnc(Nc3ccc(Cl)nc3O[C@@H]3COC[C@H]3O)c12 [Example 2.48] | 7 nM | 90% | 
10 | CO[C@@H]1CN(C(=O)OCc2ccccc2)C[C@H]1Oc1ncccc1Nc1ncnc2cc(N=S3(=O)CCCC3)cc(C)c12 [Example 2.16] | 82 nM | 55% | 
11 | CCS(C)(=O)=Nc1cc(C)c2c(Nc3ccc(F)cc3O[C@H]3COC[C@@H]3O)ncnc2c1 (stereo partly drawn) [Example 2.37] | 4 nM | 93% | 
12 | O=S1(=Nc2cc(Cl)c3c(Nc4ccc(F)cc4O[C@H]4COC[C@H]4O)ncnc3c2)CCC1 (single isomer, unassigned) [Example 1.35] | 1 nM |  | 25 nM
13 | Cc1cc(N=S(C)(=O)C2CCOCC2)cc2ncnc(Nc3ccc(F)cc3O[C@H]3COC[C@@H]3O)c12 (stereo partly drawn) [Example 2.78] | 11 nM |  | 107 nM
14 | CC(=O)N1C[C@@H](O)[C@H](Oc2ncccc2Nc2ncnc3cc(N=S4(=O)CCCC4)cc(C)c23)C1 [Example 2.23] | 23 nM | 75% | 
15 | Cc1cc(N=S(C)(=O)c2cccnc2)cc2ncnc(Nc3ccc(F)cc3O[C@@H]3COC[C@@H]3O)c12 (mixture of isomers) [Example 2.70] | 10 nM | 92% | 
16 | Cc1cc(N=S2(=O)CCCC2)cc2ncnc(Nc3cccnc3O[C@@H]3CNC[C@H]3O)c12 [Example 3.1] | 29 nM | 93% | 
17 | O=S1(=Nc2cc(F)c3c(Nc4ccc(Cl)nc4O[C@H]4COC[C@@H]4O)ncnc3c2)CCC1 [Example 1.24] | 3 nM | 91% | 
18 | O=S1(=Nc2cc(C(F)(F)F)c3c(Nc4ccc(F)cc4O[C@H]4COC[C@@H]4O)ncnc3c2)CCCC1 [Example 1.28] | 4 nM | 96% | 
19 | Cc1cc(N=S2(=O)CCCC2)cc2ncnc(Nc3cccnc3O[C@H]3CNC[C@@H]3O)c12 [Example 3.3] | 26 nM | 88% | 
20 | CS(C)(=O)=Nc1cc(Cl)c2c(Nc3ccc(F)cc3O[C@@H]3COC[C@H]3O)ncnc2c1 [Example 1.26] | 3 nM | 99% | 
21 | Cc1cc(N=S(C)(=O)C(C)C)cc2ncnc(Nc3ccc(F)cc3O[C@H]3COC[C@@H]3O)c12 (stereo partly drawn) [Example 2.74] | 7 nM | 91% | 
22 | Cc1cc(N=S(C)(C)=O)cc2ncnc(Nc3cccnc3O[C@H]3COC[C@@H]3O)c12 [Example 2.28] | 11 nM | 85% | 
23 | Cc1cc(N=S(C)(C)=O)cc2ncnc(Nc3ccc(F)cc3O[C@@H]3CNC[C@H]3O)c12 [Example 3.4] | 21 nM | 82% | 
24 | CO[C@H]1COC[C@@H]1Oc1ncccc1Nc1ncnc2cc(N=S3(=O)CCCC3)cc(C)c12 (racemic) [Example 2.39] | 7 nM | 86% | 
25 | Cc1cc(N=S2(=O)CCCC2)cc2ncnc(Nc3ccc(Cl)nc3O[C@H]3COC[C@@H]3O)c12 [Example 2.42] | 4 nM |  | 39 nM
26 | Cc1cc(N=S(C)(C)=O)cc2ncnc(Nc3ccc(F)cc3O[C@H]3COC[C@H]3C#N)c12 [Example 1.2] | 19 nM |  | 383 nM
27 | Cc1cc(N=S(C)(=O)C(C)(C)C)cc2ncnc(Nc3ccc(F)cc3O[C@H]3COC[C@@H]3O)c12 (stereo partly drawn) [Example 2.79] | 10 nM | 85% | 
28 | Cc1cc(N=S(C)(=O)c2ccccc2)cc2ncnc(Nc3ccc(F)cc3O[C@H]3COC[C@@H]3O)c12 (stereo partly drawn) [Example 2.75] | 8 nM |  | 95 nM
29 | Cc1cc(N=S(C)(C)=O)cc2ncnc(Nc3ccc(Cl)nc3O[C@H]3COC[C@@H]3O)c12 [Example 2.40] | 6 nM | 96% | 

The remaining lines, values ahead:

Row | IC50 (MNK2a) | inhibition at 1 µM (MNK1a) | IC50 (MNK1a) | SMILES
30 | 389 nM | 10% |  | CO[C@@H]1CN(C(C)=O)C[C@H]1Oc1cc(F)ccc1Nc1ncnc2cc(N=S(C)(C)=O)cc(C)c12 [Example 6.1]
31 | 3 nM | 100% |  | COc1cc(N=S(C)(C)=O)cc2ncnc(Nc3ccc(Cl)nc3O[C@H]3COC[C@@H]3O)c12 [Example 8.2]
32 | 7 nM | 94% |  | COc1cc(N=S(C)(=O)C(C)C)cc2ncnc(Nc3ccc(F)cc3O[C@H]3COC[C@@H]3O)c12 (stereo partly drawn) [Example 9.9]
33 | 1 nM |  | 55 nM | Cc1cc(N=S2(=O)CCCC2)cc2ncnc(Nc3ccc(F)cc3O[C@H]3COC[C@H]3OCCF)c12 (racemic) [Example 10.1]
34 | 21 nM | 97% |  | COc1cc(N=S2(=O)CCCC2)cc2ncnc(Nc3cccnc3O[C@H]3COC[C@H]3O)c12 (racemic) [Example 8.5]
35 | 54 nM | 44% |  | CO[C@@H]1CN(C)C[C@H]1Oc1cc(F)ccc1Nc1ncnc2cc(N=S(C)(C)=O)cc(C)c12 [Example 11.1]
36 | 13 nM | 69% |  | CO[C@@H]1COC[C@H]1Oc1cc(F)ccc1Nc1ncnc2cc(N=S(C)(C)=O)cc(C)c12 (racemic) [Example 13.2]
37 | 20 nM | 62% |  | CO[C@@H]1CN(S(C)(=O)=O)C[C@H]1Oc1cc(F)ccc1Nc1ncnc2cc(N=S3(=O)CCCC3)cc(C)c12 [Example 6.4]
38 | 584 nM | 9% |  | CO[C@@H]1CN(C(C)=O)C[C@H]1Oc1ncccc1Nc1ncnc2cc(N=S(C)(C)=O)cc(C)c12 [Example 6.3]
39 | 31 nM | 75% |  | CO[C@@H]1CN(C)C[C@H]1Oc1cc(F)ccc1Nc1ncnc2cc(N=S3(=O)CCCC3)cc(C)c12 [Example 11.2]
40 | 2 nM | 101% |  | O=S1(=Nc2cc(Cl)c3c(Nc4ccc(F)cc4O[C@H]4COC[C@H]4O)ncnc3c2)CCCC1 (single isomer, unassigned) [Example 14.10]
41 | 80 nM |  | 1400 nM | CO[C@@H]1CN(S(C)(=O)=O)C[C@H]1Oc1ncccc1Nc1ncnc2cc(N=S(C)(C)=O)cc(C)c12 [Example 6.6]
42 | 1 nM | 97% |  | CO[C@H]1COC[C@H]1Oc1ncccc1Nc1ncnc2cc(N=S3(=O)CCCC3)cc(C)c12 (single isomer, unassigned) [Example 14.1]
43 | 10 nM | 86% |  | CO[C@@H]1COC[C@@H]1Oc1ncccc1Nc1ncnc2cc(N=S3(=O)CCCC3)cc(C)c12 (single isomer, unassigned) [Example 14.2]
44 | 59 nM | 56% |  | CO[C@@H]1CN(C)C[C@H]1Oc1ncccc1Nc1ncnc2cc(N=S(C)(C)=O)cc(C)c12 [Example 11.4]
45 | 8 nM | 97% |  | COc1cc(N=S(C)(=O)C(C)(C)C)cc2ncnc(Nc3ccc(F)cc3O[C@H]3COC[C@@H]3O)c12 (stereo partly drawn) [Example 9.18]
